This passage reports IC50 results from patent publication US9382288B2, “Derivatives of steroid benzylamines, having an antiparasitic antibacterial, antimycotic and/or antiviral action” (Justus-Liebig-Universitat Giessen, priority 2010, dated 2016).

This assay concerns P. falciparum strain 3D7-Netherlands. The experiment in a line: In vitro IC50, 3H-hypoxanthine incorporation, P. falciparum 3D7. It counts as cell-based, Plasmodium falciparum. The note with it: Plasmodium falciparum, P. falciparum strain 3D7.
[1] abbreviates: read-out: IC50 [ng/ml] P.f.(3D7).

Where two headings read alike, the source gives them in different places.

`COc1ccc2c(c1)CCC1C2CC[C@@]2(C)C1CC[C@H]2NCc1ccccc1OC` (stereo partly drawn) [Compound 5, 17α-(2-Methoxyphenyl-methylamino)-3-methoxy-estra-1,3,5(10)-triene]: the IC50 worked out at 879 nM (read-out: IC50 [nM] P.f.(3D7)) and 578 ng/mL under setting [1].
With `COc1ccc2c(c1)CCC1C2CC[C@@]2(C)C1CC[C@H]2NCc1cccc(O)c1` (stereo partly drawn) [Compound 6, 17α-(3-Hydroxyphenyl-methylamino)-3-methoxy-estra-1,3,5(10)-triene], the IC50 is, setting by setting: (read-out: IC50 [nM] P.f.(3D7)) 440 nM; under setting [1], 172 ng/mL.
`COc1ccc2c(c1)CCC1C2CC[C@@]2(C)C1CC[C@H]2NCc1ccc(O)cc1` (some centres unmarked) [Compound 7]: the IC50 reads like this: (read-out: IC50 [nM] P.f.(3D7)) 115 nM; under setting [1], 45 ng/mL.
As to `COc1ccc2c(c1)CCC1C2CC[C@@]2(C)C1CC[C@H]2NCc1c(O)ccc2ccccc12` (stereo partly drawn) [Compound 17, 17α-[(2-Hydroxynaphth-1-yl)-methylamino]-3-methoxy-estra-1,3,5(10)-triene], the IC50 was 72.8 nM (read-out: IC50 [nM] P.f.(3D7)) and 32.1 ng/mL under setting [1].
In the case of `COc1ccc2c(c1)CCC1C2CC[C@@]2(C)C1CC[C@@H]2NCc1c(O)ccc2ccccc12` (stereo partly drawn) [Compound 19, 17β-[(2-Hydroxynaphth-1-yl)-methylamino]-3-methoxy-estra-1,3,5(10)-triene hydroperchlorate], the IC50 came out at 182 nM (read-out: IC50 [nM] P.f.(3D7)) and 98.6 ng/mL under setting [1].
The matching figures for `COc1ccc2c(c1)CCC1C2CC[C@@]2(C)C1CC[C@@H]2NCc1cccc(O)c1` (stereo partly drawn) [Compound 20, 17β-(3-Hydroxyphenyl-methylamino)-3-methoxy-estra-1,3,5(10)-triene]: 733 nM and 287 ng/mL.
Consider `CCN(CC)c1ccc(CN[C@H]2CCC3C4CCc5cc(OC)ccc5C4CC[C@@]32C)c(O)c1` (stereo partly drawn) [Compound 23, 17β-[4-(N,N-Diethylamino)-2-hydroxyphenyl-methylamino]-3-methoxy-estra-1,3,5(10)-triene], for which the IC50 by setting is: (read-out: IC50 [nM] P.f.(3D7)) 716 nM; under setting [1], 331 ng/mL.
In the case of `COc1ccc2c(c1)CC[C@@H]1[C@@H]2CC[C@]2(C)[C@@H](O)[C@H](N(C)c3cc4ccccc4cc3O)C[C@@H]12` [Compound 32, 16α-[(3-Hydroxy-naphth-2-yl)-methylamino]-17β-hydroxy-3-methoxy-estra-1,3,5(10)-triene], the IC50 reads like this: (read-out: IC50 [nM] P.f.(3D7)) 29.9 nM; under setting [1], 13.7 ng/mL.
Consider `COc1ccc2c(c1)CC[C@@H]1[C@@H]2CC[C@]2(C)[C@H](O)[C@H](N(C)c3cc4ccccc4cc3O)C[C@@H]12` [Compound 36, 16α-[(3-Hydroxy-naphth-2-yl)-methylamino]-17α-hydroxy-3-methoxy-estra-1,3,5(10)-triene], for which the IC50 (read-out: IC50 [nM] P.f.(3D7)) came out at 42.1 nM and the IC50 under setting [1] worked out at 19.3 ng/mL.
The matching figures for `COc1ccc2c(c1)CCC1C2CC[C@@]2(C)C1C[C@H](NCc1ccccc1O)[C@@H]2O` (stereo partly drawn) [Compound 42, 16β-(2-Hydroxyphenyl-methylamino)-17β-hydroxy-3-methoxy-estra-1,3,5(10)-triene]: 227 nM and 91.3 ng/mL.
Taken in the same sequence, the figures for `COc1ccc2c(c1)CCC1C2CC[C@@]2(C)C1C[C@@H](NCc1ccccc1O)[C@H]2O` (stereo partly drawn) [Compound 45, 16α-(2-Hydroxyphenyl-methylamino)-17α-hydroxy-3-methoxy-estra-1,3,5(10)-triene] were 101 nM and 41 ng/mL.
As for `COc1ccc2c(c1)CCC1C2CC[C@]2(C)C1C[C@H](NCc1ccccc1O)[C@@H]2O` (stereo partly drawn) [Compound 47, 16β-(2-Hydroxyphenyl-methylamino)-17β-hydroxy-3-methoxy-13α-estra-1,3,5(10)-triene], the IC50 was determined as 140 nM (read-out: IC50 [nM] P.f.(3D7)) and 57.3 ng/mL under setting [1].
In the case of `COc1ccc2c(c1)CCC1C2CC[C@]2(C)C1C[C@@H](NCc1ccccc1O)[C@@H]2O` (stereo partly drawn) [Compound 48, 16α-(2-Hydroxyphenyl-methylamino)-17β-hydroxy-3-methoxy-13α-estra-1,3,5(10)-triene], the IC50 reads like this: (read-out: IC50 [nM] P.f.(3D7)) 83.3 nM; under setting [1], 34 ng/mL.
